Read-outs that look alike come from different tables or passages of the source. Where a SMILES comes first, the peptide text is derived from it. [ ]: non-standard residue; d: D form. dCha = N[C@H](CC1CCCCC1)C(=O)O
What was measured:
C57BL/6 mice [1] = assay: MOG35-55 induced EAE model; type: in vivo; conditions: 2 mg/kg
MC1R [2] = biological target: T1, MC1R (Homo sapiens, UniProt Q01726); design: purchased Perkin Elmer, Boston Mass; host or cells: HEK293 transfected cell lines (membrane preparations); conditions: value quoted, not from Table 1; read-out: Ki MC1R (reported); cited from earlier work
T1 sequence (Q01726 whole entry): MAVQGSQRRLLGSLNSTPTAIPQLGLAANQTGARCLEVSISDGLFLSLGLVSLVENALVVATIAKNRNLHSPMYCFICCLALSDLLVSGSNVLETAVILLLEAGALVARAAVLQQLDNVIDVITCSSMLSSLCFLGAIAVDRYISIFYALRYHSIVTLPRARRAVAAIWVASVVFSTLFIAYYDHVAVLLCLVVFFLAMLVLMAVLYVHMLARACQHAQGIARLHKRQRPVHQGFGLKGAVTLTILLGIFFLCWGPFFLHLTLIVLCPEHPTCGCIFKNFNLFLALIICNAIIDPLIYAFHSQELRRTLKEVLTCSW

[3] = system: B16-F1 murine melanoma cells; assay: Intracellular cAMP in B16-F1 melanoma cells; type: cell-based; conditions: for EC50: B16-F1 cells, 10^-4-10^-11 M, 30 min, IBMX
Method: B16-F1 (melanoma cell line) cells from American Type Culture Collection (Manassas, Va.) were seeded into flat bottom 96 well plates at 5×10^4/well and cultured overnight in DMEM (Cambrex, Walkersville, Md.) supplemented with 2 mM glutamine, antibiotics (100 U/ml penicillin and 100 […]) and 10% heat-inactivated fetal bovine serum (Invitrogen, Grand Island, N.Y.). […] Cells were lysed and intracellular cAMP levels were measured by an enzyme immunoassay kit (Amersham Biosciences, Piscataway, N.J.). Forskolin (Sigma, St. Louis, Mo.) at 100 μM served as positive controls.
cAMP levels in B16-F1 melanoma cells after treatment with native α-MSH, RI α-MSH, or a scrambled control peptide were examined. The […] melanoma cell line expresses a high number of MCR1 receptors (3000-4000 receptors/cell) compared with macrophages cell lines which express only 100-200 receptors/cell. Therefore we selected to examine the effect of the RI α-MSH treatment on the melanoma cell line. Murine melanoma B16-F1 cells were treated with native α-MSH, RI α-MSH, or control scrambled peptide at concentrations 1 pg/ml-1 μg/ml. After 30 min, cells were lysed and intracellular cAMP was measured by an enzyme immunoassay. […] However, a higher concentration of RI α-MSH (100 ng/ml) was necessary to increase cAMP compared with native α-MSH which increased cAMP at a 10 pg/ml concentration. This difference in concentration of peptide necessary to increase cAMP levels may be the result of the binding affinity to the MCR1 receptor.
Murine melanoma B16-F1 cells were treated with native α-MSH, RI α-MSH, scrambled peptide control, KPV, or alanine substituted peptides of RI α-MSH at 1 μg/ml (FIG. 7B). […] Peptides designated 810, 811, and 812 have alanine substitutions in the central core tetrapeptide sequence (D-Trp D-Arg D-Phe D-His region; AA 5-8) (variant disclosed in SEQ ID NO:2) proposed to be involved in native α-MSH binding to the melanocortin receptor and its biological activity. […] The residues in the core tetrapeptide (wrfh) (variant disclosed in SEQ ID NO:2) and to a lesser extent, the methionine 4 of RI-MSH are critical for binding to MC1R.
B16-F1 murine melanoma cells were cultured into 96 well plates 5×10^4 cells/well overnight in media with L-glutamine and pen/strep and FBS. Media was removed and new media with IBMX was added to the cells for 1 hr. Cells were then treated with RI α-MSH, or RI α-MSH peptide analogs (890, 891, 892, 893, 894 or 895). Cells were lysed after 30 min using a cAMP assay kit and supernatant were used in the assay. Forskolin at 10 μM served as positive controls.
Intracellular cAMP was measured using a cAMP competition Assay Kit (Amersham Biosciences). All cell lysate samples were diluted 1:100 for analysis.
Murine melanoma B16-F1 cells were treated with RI α-MSH, or RI α-MSH analogs (869, 872, 880, 878, 886 and 890-895) at a concentration range of 10^−4-10^−11 M. cAMP levels from cells treated with RI α-MSH, or RI α-MSH analogs. […] See FIG. 22 for graphical data and Table 2 for EC50 data.

MC1R [4] = biological target: T1, MC1R; assay: Competitive binding with 125I-NDP-MSH, HEK293 membrane preparations, MC1R; conditions: for Ki: Ki MC1R, competition with 125I-NDP-MSH;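 as to all read-outs here: Read-out: receptor-bound radioligand retained by filtration and counted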
Method: (§1) Binding analysis was done by Cerep laboratories (Paris, France) with coded samples.
(§2) The mixtures were filtered through 96-well GFC filters (Millipore, Billerica, Mass.), washed 3 times with binding buffer without BSA, dried and counted.
(§3) A competitive binding assay using a MCR panel including MCR 1, 3, 4, and 5 was performed.

MC3R = MC3R (Homo sapiens, UniProt P41968); assay: Competitive binding with 125I-NDP-MSH, HEK293 membrane preparations, MC3R
MC3R, sequence (P41968 whole entry): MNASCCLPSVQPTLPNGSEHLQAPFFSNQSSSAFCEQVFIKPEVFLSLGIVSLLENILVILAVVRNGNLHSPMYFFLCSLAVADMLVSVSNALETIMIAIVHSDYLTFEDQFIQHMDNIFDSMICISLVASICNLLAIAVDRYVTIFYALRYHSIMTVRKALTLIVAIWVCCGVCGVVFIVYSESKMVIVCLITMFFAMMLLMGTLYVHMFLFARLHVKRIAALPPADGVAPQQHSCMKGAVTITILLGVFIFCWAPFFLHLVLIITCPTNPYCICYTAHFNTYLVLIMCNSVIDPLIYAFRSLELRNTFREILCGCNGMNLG
Method: as §1, §2, §3

MC4R = MC4R (Homo sapiens, UniProt P32245); assay: Competitive binding with 125I-NDP-MSH, HEK293 membrane preparations, MC4R
MC4R, sequence (P32245 whole entry): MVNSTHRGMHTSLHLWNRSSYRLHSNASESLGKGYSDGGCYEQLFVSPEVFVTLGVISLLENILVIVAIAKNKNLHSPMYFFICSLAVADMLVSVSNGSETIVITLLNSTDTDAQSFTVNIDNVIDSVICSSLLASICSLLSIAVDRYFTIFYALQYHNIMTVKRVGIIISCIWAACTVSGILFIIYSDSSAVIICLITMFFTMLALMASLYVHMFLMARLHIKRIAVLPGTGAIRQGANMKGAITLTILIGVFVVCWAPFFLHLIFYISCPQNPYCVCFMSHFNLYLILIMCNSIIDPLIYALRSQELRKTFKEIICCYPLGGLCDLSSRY
Method: as §1, §2, §3

MC5R = MC5R (Homo sapiens, UniProt P33032); assay: Competitive binding with 125I-NDP-MSH, HEK293 membrane preparations, MC5R; conditions: Ki MC5R, competition with 125I-NDP-MSH; cells noted in μM
MC5R, sequence (P33032 whole entry): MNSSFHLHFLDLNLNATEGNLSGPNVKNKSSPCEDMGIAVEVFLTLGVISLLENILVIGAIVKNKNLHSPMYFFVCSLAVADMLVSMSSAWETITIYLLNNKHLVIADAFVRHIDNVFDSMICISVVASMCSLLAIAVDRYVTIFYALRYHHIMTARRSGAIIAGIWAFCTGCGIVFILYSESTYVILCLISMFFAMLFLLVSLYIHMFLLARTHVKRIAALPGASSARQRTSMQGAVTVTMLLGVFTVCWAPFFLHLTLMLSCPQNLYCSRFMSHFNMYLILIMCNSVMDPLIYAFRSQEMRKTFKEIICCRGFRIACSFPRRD
Method: as §1, §2, §3

C57BL/6 mice [5] = assay: LPS inflammation mouse model, serum cytokines; type: in vivo; conditions: i.p. 30 min after LPS, serum at 2 h
Method: Male C57BL/6 mice were challenged with LPS (1 ug/mouse), i.p. After 30 min mice were treated with dexamethasone (2 mg/kg; Sigma), RI-α-MSH analog 891, or RI-α-MSH. At 2 hrs after LPS challenge, mice were bled for serum. Cytokine analysis was measured by flow cytometry with a cytometric bead array kit (BD Biosciences).
C57BL/6 mice were injected with LPS, i.p. and 30 minutes later native α-MSH or RI α-MSH analog 891 was administered i.p. at doses ranging from 5 mg/kg to 0.156 mg/kg. RI α-MSH analog 891 is an analog of RI α-MSH in which d-Cha and hsiiss D-amino acids were added to the core peptide sequence. […] MCP-1 was not affected by native α-MSH treatment (FIG. 16B).

mouse MC1R = mouse MC1R (Mus musculus, UniProt Q01727); assay: Binding affinity to mouse MC1R (data not shown)
mouse MC1R, sequence (Q01727 whole entry): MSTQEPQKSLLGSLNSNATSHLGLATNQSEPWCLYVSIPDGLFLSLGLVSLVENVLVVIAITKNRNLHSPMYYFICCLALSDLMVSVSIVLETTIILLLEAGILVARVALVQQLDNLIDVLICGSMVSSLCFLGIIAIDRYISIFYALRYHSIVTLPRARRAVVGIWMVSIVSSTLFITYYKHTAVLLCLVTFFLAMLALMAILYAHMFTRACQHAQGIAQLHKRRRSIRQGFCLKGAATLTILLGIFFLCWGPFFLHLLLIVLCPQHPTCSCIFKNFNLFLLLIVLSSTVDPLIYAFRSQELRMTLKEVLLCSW

[6] = peptides 5 to 0.156 mg/kg, dexamethasone 2 mg/kg

Row | EC50 [3] [µM] | Ki (MC1R [4]) [µM] | Ki (MC3R) [µM] | Ki (MC4R) [µM] | Ki (MC5R) [µM] | Compound | further results
1 | 0.023 | 0.0018 ± 0.0035 | ~18 | ~10 | > 30 | CC[C@@H](C)[C@@H](NC(=O)[C@@H](CO)NC(=O)[C@@H](Cc1c[nH]cn1)NC(=O)[C@H](Cc1ccccc1)NC(=O)[C@@H](CCCNC(=N)N)NC(=O)[C@@H](Cc1c[nH]c2ccccc12)NC(=O)CNC(=O)[C@@H](CCCCN)NC(=O)[C@H]1CCCN1C(=O)[C@H](NC(C)=O)C(C)C)C(=O)N[C@@H](C(=O)N[C@H](CO)C(=O)N[C@H](CO)C(N)=O)[C@H](C)CC [compound 880, vpkGwrFhsiiss] (Ac-[dV][dP][dK]G[dW][dR]F[dH][dS][dI][dI][dS][dS]-NH2) | 
2 | 0.002 | 0.001 | ~19 | ~10 | ~20 | CC[C@@H](C)[C@@H](NC(=O)[C@@H](CO)NC(=O)[C@@H](Cc1c[nH]cn1)NC(=O)[C@@H](Cc1ccccc1)NC(=O)[C@@H](CCCNC(=N)N)NC(=O)[C@@H](Cc1c[nH]c2ccccc12)NC(=O)CNC(=O)[C@@H](CCCCN)NC(=O)[C@H]1CCCN1C(=O)[C@H](NC(C)=O)C(C)C)C(=O)N[C@@H](C(=O)N[C@H](CO)C(=O)N[C@H](CO)C(N)=O)[C@H](C)CC [compound 886, vpkgwrfhsiiss] (Ac-[dV][dP][dK]G[dW][dR][dF][dH][dS][dI][dI][dS][dS]-NH2) | 
3 | 0.081 | 0.00043 ± 1e-05 | ~8 | ~3.2 | ~2.5 | CC[C@@H](C)[C@@H](NC(=O)[C@@H](CO)NC(=O)[C@@H](Cc1c[nH]cn1)NC(=O)[C@@H](CC1CCCCC1)NC(=O)[C@@H](CCCNC(=N)N)NC(=O)[C@@H](Cc1c[nH]c2ccccc12)NC(=O)CNC(=O)[C@@H](CCCCN)NC(=O)[C@H]1CCCN1C(=O)[C@H](NC(C)=O)C(C)C)C(=O)N[C@@H](C(=O)N[C@H](CO)C(=O)N[C@H](CO)C(N)=O)[C@H](C)CC [compound 891, vpkGwr(D-Cha)hsiiss] (Ac-[dV][dP][dK]G[dW][dR][dCha][dH][dS][dI][dI][dS][dS]-NH2) | potency to stimulate cAMP (in words) ([3]; data not shown): increased potency to stimulate cAMP; serum IL-10 vs vehicle (in words) (C57BL/6 mice [5]; 5 to 0.156 mg/kg): significant decrease; serum MCP-1 vs vehicle (in words) (C57BL/6 mice [5]; [6]): no affect; serum TNF-α vs vehicle (in words) (C57BL/6 mice [5]; [6]): significant decrease; binding affinity to mouse MC1R (in words) (mouse MC1R): increased binding affinity; affinity for MC1R compared with parent peptide (in words) (MC1R [4]): indistinguishable from MSH
4 | 0.27 | 0.0065 | ~28 |  | ~27 | CSCC[C@@H](NC(=O)[C@@H](CCC(=O)O)NC(=O)[C@@H](Cc1c[nH]cn1)NC(=O)[C@@H](Cc1ccccc1)NC(=O)[C@@H](CCCNC(=N)N)NC(=O)[C@H](Cc1c[nH]c2ccccc12)NC(=O)CNC(=O)[C@@H](CCCCN)NC(=O)[C@H]1CCCN1C(=O)[C@H](NC(C)=O)C(C)C)C(=O)N[C@H](CO)C(=O)N[C@H](Cc1ccc(O)cc1)C(=O)N[C@H](CO)C(N)=O [compound 893, vpkGWrfhemsys] | 
5 | 212 | 0.38 | > 30 |  | > 30 | CSCC[C@@H](NC(=O)[C@@H](CCC(=O)O)NC(=O)[C@@H](Cc1c[nH]cn1)NC(=O)[C@@H](Cc1ccccc1)NC(=O)[C@H](CCCNC(=N)N)NC(=O)[C@@H](Cc1c[nH]c2ccccc12)NC(=O)CNC(=O)[C@@H](CCCCN)NC(=O)[C@H]1CCCN1C(=O)[C@H](NC(C)=O)C(C)C)C(=O)N[C@H](CO)C(=O)N[C@H](Cc1ccc(O)cc1)C(=O)N[C@H](CO)C(N)=O [compound 894, vpkGwRfhemsys] | 
6 | 0.3 | 0.019 | ~37 |  | ~37 | CSCC[C@@H](NC(=O)[C@@H](CCC(=O)O)NC(=O)[C@H](Cc1c[nH]cn1)NC(=O)[C@@H](Cc1ccccc1)NC(=O)[C@@H](CCCNC(=N)N)NC(=O)[C@@H](Cc1c[nH]c2ccccc12)NC(=O)CNC(=O)[C@@H](CCCCN)NC(=O)[C@H]1CCCN1C(=O)[C@H](NC(C)=O)C(C)C)C(=O)N[C@H](CO)C(=O)N[C@H](Cc1ccc(O)cc1)C(=O)N[C@H](CO)C(N)=O [compound 895, vpkGwrfHemsys] | 

The next lines start with the compound.

Row | Compound | EC50 [3] [µM] | Ki (MC1R [4]) [µM] | Ki (MC3R) [µM] | Ki (MC4R) [µM] | Ki (MC5R) [µM] | further results
7 | C[C@@H]1C[C@H]2[C@@H]3CCC4=CC(=O)C=C[C@]4(C)[C@@]3(F)[C@@H](O)C[C@]2(C)[C@@]1(O)C(=O)CO [Dexamethasone, dexamethasone, reference compound] |  |  |  |  |  | maximum percent incidence of disease (C57BL/6 mice [1]): 40%
8 | NC(=O)[C@H](Cc1c[nH]c2ccccc12)NC(=O)[C@H](CCCN=C(N)N)NC(=O)[C@@H](Cc1ccccc1)NC(=O)[C@H](Cc1cnc[nH]1)NC(=O)CCCc1ccccc1 [compound 819, (Ph(CH2)3CO) HfRW] |  |  |  |  |  | Ki (MC1R [2]): 6 pM
9 | CSCC[C@@H](NC(=O)[C@@H](CCC(=O)O)NC(=O)[C@@H](Cc1c[nH]cn1)NC(=O)[C@@H](CC1CCCCC1)NC(=O)[C@@H](CCCNC(=N)N)NC(=O)[C@@H](Cc1c[nH]c2ccccc12)NC(=O)CNC(=O)[C@@H](CCCCN)NC(=O)[C@H]1CCCN1C(=O)[C@H](NC(C)=O)C(C)C)C(=O)N[C@H](CO)C(=O)N[C@H](Cc1ccc(O)cc1)C(=O)N[C@H](CO)C(N)=O [compound 869, vpkGwr(D-Cha)hemsys] | 0.014 | 0.0022 | > 30 | > 10 | ~25 | 
10 | CCCCSCC[C@@H](NC(=O)[C@@H](CCC(=O)O)NC(=O)[C@@H](Cc1c[nH]cn1)NC(=O)[C@@H](Cc1ccccc1)NC(=O)[C@@H](CCCNC(=N)N)NC(=O)[C@@H](Cc1c[nH]c2ccccc12)NC(=O)CNC(=O)[C@@H](CCCCN)NC(=O)[C@H]1CCCN1C(=O)[C@H](NC(C)=O)C(C)C)C(=O)N[C@H](CO)C(=O)N[C@H](Cc1ccc(O)cc1)C(=O)N[C@H](CO)C(N)=O [compound 878, vpkGwrfhe(D-buthionine)sys] |  | 0.0023 | ~40 | > 30 | ~30 | 
11 | CCCCSCC[C@@H](NC(=O)[C@@H](CCC(=O)O)NC(=O)[C@@H](Cc1c[nH]cn1)NC(=O)[C@@H](CC1CCCCC1)NC(=O)[C@@H](CCCNC(=N)N)NC(=O)[C@@H](Cc1c[nH]c2ccccc12)NC(=O)CNC(=O)[C@@H](CCCCN)NC(=O)[C@H]1CCCN1C(=O)[C@H](NC(C)=O)C(C)C)C(=O)N[C@H](CO)C(=O)N[C@H](Cc1ccc(O)cc1)C(=O)N[C@H](CO)C(N)=O [compound 890, vpkGwr(D-Cha)he(d-Buthionine)sys] |  | 0.0019 | ~15 | ~14 | ~4.5 | 

— patent US10385108B2, “Peptide analogs of alpha-melanocyte stimulating hormone” (Genzyme Corporation, priority 2008, dated 2019)
